The results in this text go back to patent publication US9956199B2, “Chromane-like cyclic prenylflavonoids for the medical intervention in neurological disorders” (priority 2011, dated 2018).

Molecules are shown by their SMILES. “Also recorded” adds a separate entry of the source.

In assay [1] the test system is MEF cells. In words: neurite length and branching in MEF cultures. Type of assay: cell-based, mouse. Particulars: 10 μM and 100 μM, 7 days. The protocol: Mouse embryonic day 16 forebrain cells were prepared and treated as described in Example 17.
The morphology of MEF cells after a 7 day treatment with retinoic acid/valproic acid or with compound 1a (ENDF1) is illustrated in FIG. 4. Cells were fixed and stained with DCX and Map2ab antibodies as described in Example 18. Three independent experiments were performed and evaluated. Data acquisition was done by using the software Volocity 5.3.1 for measurement and photographical documentation. The following parameters were analyzed: polarity, process, number of branches, number and length of sprouts, neurite-length and growth cone morphology.
For quantitative analysis of neurite length, neurons with long neurites were taken into consideration. […] For quantitative analysis of neurite branching, the branch density (number of branches per 100 μm of neurite length) was counted. For analysis, the DCX staining with DMEM-KO medium was used, since DCX, in contrast to Map2ab, is localized throughout the neurites.

Assay [2] relates to Neuro-2a cells. Put plainly: neurite length in Neuro2a cells (GAP-43 staining). It counts as cell-based, mouse. Particulars: 10 μM, 2 days, compared to control and RA/VPA. The protocol: For more precise analysis of neurite length Neuro2a cells were selected and stimulated for 2 days with RA/VPA as positive control and ENDFs in MEM+10% FCS. Immunocytochemical analysis was performed using GAP43 antibody which is known as a strong neuronal plasticity marker.
Neuro2a cells were grown in MEM with Earle's Salts (PAA, Pasching, Austria) containing 2 mM L-glutamine, 100 μg/ml Penicillin/Streptomycin (PAN Biotech GmbH, Aidenbach, Germany), 100 mM sodium pyruvate (Sigma-Aldrich, Taufkirchen, Germany) and 10% FCS (Lonza, Wuppertal, Germany).
The cells were passaged with 6 ml trypsin 0.5 mg/ml+EDTA 0.22 mg/ml (PAA, Pasching, Austria) two times per week. For analysis of neurite length Neuro2a cells were seeded on coverslips in a 24 well plate coated with Poly-L-ornithine and Laminin in a differentiation media MEM with Earle's Salts (PAA, Pasching, Austria) containing 2 mM L-glutamine, 100 μg/ml Penicillin/Streptomycin (PAN Biotech GmbH, Aidenbach, Germany), 100 mM sodium pyruvate (Sigma-Aldrich, Taufkirchen, Germany) and 1% FCS (Lonza, Wuppertal, Germany) and treated for 2 days with retinoic acid plus valproic acid and compound 1a (ENDF1) 10 μM, compound 1b (ENDF3) 10 μM, compound 3a (ENDF2) 10 μM, or ENDF4 10 μM. Cells were fixed as described in Example 18. Immunostaining was performed using GAP-43 1:500 (AbD Serotec, Oxford, UK).

For assay [3], the system named is PC12 cells. Put plainly: PC12 cobalt-chloride stress test, LDH release. Type of assay: cell-based, rat. The conditions noted are these: CoCl2 300 μM, 24 hours; compounds 10 μM, NGF 100 ng/ml; FIG. 7B. The protocol:
For the neuroprotection assay PC12 cells were stressed with cobalt chloride 300 μM for 24 hours and the activity of Caspase 3/7 and LDH release were measured. NGF 50 ng/ml was used as a positive control for Caspase 3/7 activity and NGF 100 ng/ml was used as a positive control for LDH release.
For the PC12-CoCl2-Assay PC12 cells were used (ATCC: CRL-1721 ™). These cells were growing in RPMI supplemented with 10% Horse Serum (heat inactivated) (Sigma Aldrich, Taufkirchen, Germany), 5% Fetal Bovine Serum (Lonza, Wuppertal, Germany), 2.5% Penicillin/Streptomycin and Glutamine (PAA, Pasching, Austria) as adherent cultures when the plates are coated with Poly-L-ornithine ([…] in water) for at least one hour at 37° C. For passaging PC12-cells were resuspended with Accutase (PAA, Pasching, Austria) for 10 minutes at 37° C. once a week.
For all experiments cells were plated (quadruplicates) on Poly-L-ornithine-coated 96-well plates at a density of 10^4 cells per well. For Caspase 3/7-measurement cells were seeded in a white 96-well-plate to detect luminescence. As positive-control for neuroprotection Nerve Growth Factor (NGF) (50 ng/ml and 100 ng/ml) was used. To induce hypoxia CoCl2 (300 μM) was added to the cells after 20-24 hours. The control-treatment was compound 1a (ENDF1), compound 1b (ENDF3), compound 3a (ENDF2), ENDF4 or Osajin in the concentrations 1 μM and 10 μM in proliferation-media without CoCl2.
For LDH-release cells were centrifuged at 1050 rpm for 5 minutes. After 24 hours of stimulation, the supernatant was mixed in an equal amount with LDH-substrate and incubated in the dark for 30 minutes. Afterwards stop solution was added and absorbance was measured at 490 nm, the blank-values are subtracted.
On the technique in general: LDH leaks from cells whose membrane has failed.

Take `COc1cc2c(c(O)c1C(=O)/C=C/c1ccc(O)cc1)C=CC(C)(C)O2` [Compound 1a, (E)-1-(5-hydroxy-7-methoxy-2,2-dimethyl-2H-chromen-6-yl)-3-(4-hydroxyphenyl)prop-2-en-1-one]: in assay [1] (DMEM-KO, FIG. 4J), the “neurite branching/sprouting (branches per 100 μm of neurite length)” value is “high density of branches/sprouts; also recorded: strongly increases neurite length and neurite branching; also recorded: dramatic increase in branching/sprouting”. Also, the “neurite length (DCX positive neurite profiles)” value in assay [1] (compared to control and RA+VPA, FIG. 4I) is “significant increase in neurite length; also recorded: strongly increases neurite length and neurite branching; also recorded: much longer neurites”. The “neurite length and branching” value in assay [2] is “longer growth of neurites as well as more elaborated branches; also recorded: strong and significant increase on neurite length and more elaborated branches”. For the same compound, the “protection from CoCl2 induced LDH release (cell death)” value in assay [3] is listed as “partially protected; also recorded: slightly decrease the LDH release”.

Take `COc1cc2c(c(O)c1C(=O)/C=C/c1ccc(O)cc1)CCC(C)(C)O2` [Compound 1b, (E)-1-(5-hydroxy-7-methoxy-2,2-dimethylchroman-6-yl)-3-(4-hydroxyphenyl)prop-2-en-1-one]: the “neurite length and branching” value in assay [2] was “longer growth of neurites as well as more elaborated branches; also recorded: strong and significant increase on neurite length and more elaborated branches”. The “protection from CoCl2 induced LDH release (cell death)” value in assay [3] is on record as “partially protected; also recorded: slightly decrease the LDH release”.
